# “And” between values parts separate entries of the source, which are not always exact repeats. Equal entries are not always repeated.
# Tests used:
# [1] = test system: SK-HEP-1 cells; assay: NACCbl protection from homocysteine with Hsp32/Hsp70 inhibited by Sn(IX) protoporphyrin, quercitin or siRNA (MTS assay); assay type: cell-based, Human; settings: for cell viability (MTS), raw readings (FIG. 11): where named, NACCbl 30 μM pre-treatment two hours with/without Sn(IX)PP, quercetin, replicates 1-6
# Source text: siRNAs for human HO-1 were synthesised in 2′-deprotected, duplexed, desalted and purified form by Dharmacon Research Inc., published sequences from Zhang et al., (Zhang, Shan et al. 2004). Human Hsp70 primers were from proprietary sequences, and all control non-targeting primer sequences were also synthesised by Dharmacon Research Inc.
# Transfection was optimised using a standard siControl Tox protocol. All transfection experiments included non-targeted siRNA.
# Cells were trypsinized and plated into 12- or 96-well plates at cell density of 2×10^5, then incubated for 24 hours until adherent. Complexed siRNA and transfection agent at 100 nm was added directly to each experimental well. Plates were incubated at 37° C. for 32.5 hours for mRNA gene analysis experiments or 72 hours for protein analysis by Western Blot.
# Complexed siRNA and transfection agent was added to each well of either 12- or 96-well plates. Cells were then trypsinized and added directly into each test well at cell density of 2×10^5. Plates were incubated at 37° C. for 32.5 hours for mRNA gene analysis experiments or 72 hours for protein analysis by Western Blot.
# Hsp32 was inhibited using either Sn (IX) protoporhyrin or using an siRNA which specifically knocks out Hsp32. Hsp70 was inhibited using quercitin or using an siRNA which specifically knocks out Hsp70. In addition, two methods were used to inhibit both Hsp32 and Hsp70: chemically Sn (IX) protoporphyrin plus quercitin was used; and then, directly, a combination of the siRNA for both genes was used simultaneously.
# [2] = Decomposition of thiolatocobalamins in PBS at 37° C. monitored by UV/Vis spectrophotometry; assay type: physicochemical; settings: decomposition in PBS at 37° C.
# Experimental: The decomposition of GSCbl, NACCbl, and HcyCbl in PBS at 37° C. was monitored by UV/Vis spectrophotometry.
# [3] = test system: U937 (monocytes); assay: Survival of U937 cells at variable concentration of Hcy; assay type: cell-based; settings: NACCbl 30 μM, NAC 75 μM, CNCbl 15 μM, folate 30 μM; especially at higher homocysteine concentrations
# Experimental: (§1) Additional cell studies were conducted using Jurkat (T-cells) and U937 (monocyte) cell lines. These experiments confirmed that other cell types are killed by homocysteine, although these cell lines are not as sensitive as the SK-HEP-1 cell line discussed in the experiments above and are thus more resistant to homocysteine. Cells were exposed to NACCbl 30 μM, NAC 75 μM, CNCbl 15 μM, and folate 30 μM. […] In these Figures, the monocytes are N=6 and concentrations are as follows: NACCbl 30 μM, NAC 75 μM, CNCbl 15 μM, Folate 30 μM
# [4] = test system: Hsp32; assay: Hsp32 gene expression in SK-HEP-1 cells (RT-PCR, densitometry); assay type: cell-based, Human; settings: homocysteine 30 μM, folate 30 μM (2 hr), Sn(IX) protoporphyrin 25 μM, quercitin 15 μM
# Experimental: Cells were plated into 6-, 12-, or 24-well cell culture clusters, at 2×10^3, 2×10^5, or 1×10^5 cells per well and incubated until 90% confluent. Treatments were applied as above.
# Following incubation, cells were subjected to mRNA extraction followed by cDNA synthesis for each sample under test. Polymerase chain reaction cDNA templates were prepared for simplex PCR protocol. PCR products were then visualized using a UV Transilluminator and images captured using a Kodak ID gel imaging system. Densitometry and statistical analysis was then performed on each gene expression band image using PSP® v 10.0 running under Windows XP®.
# mRNA extraction was performed using the Quickprep micro mRNA Purification Kit. Following incubation of cells post-treatment, the media was removed from the cells, adherent cells were re-suspended in 0.4 ml extraction buffer and 0.8 ml elution buffer at 65° C. was added.
# A reaction mixture was prepared in individual microcentrifuge tubes containing 2 cDNA synthesis beads, 32 μl of the mRNA solution and 1 μl of pd(N)6. This mixture was incubated at 37° C. in a water bath for 60 minutes. After incubation, 27 μl of RNase-free DEPC treated water was added to each tube to make a total volume 60 μl. cDNA samples were prepared in duplicate. Sample 1 was used immediately in RT-PCR protocol. Sample 2 was prepared for qPCR protocol by the addition of 150 μl of 95% ice-cold ethanol and stored at −20° C.
# Microcentrifuge tubes from puReTaq™Ready-To-Go™ PCR Beads containing one PCR bead were labeled for each sample required. Added to the PCR bead were 17 μl of RNase-free DEPC treated water, 1 μl sense primer, 1 μl anti-sense primer and 5 μl of the cDNA solution. RT-PCR conditions were as follows: Hsp70 and β-actin, pre-treatment step, 94° C. for 1 minute, followed by denaturing at 92° C. for 1 minute, annealing at 60° C. for 1 minute and extension at 72° C. for 1 minute. Total cycles, 30, post-treatment was then carried out at 72° C. for 10 minutes. For Hsp32, pre-treatment step, 95° C. for 2 minutes, followed by denaturing at 94° C. for 30 seconds, annealing at 58° C. for 1 minute and extension at 72° C. for 1 minute. Total cycles 45, post treatment was then carried out at 72° C. for 10 minutes. Following RT-PCR, samples were stored at −20° C.
# Amplification products were separated on a 1.8% agarose gel (m/v) in TAE buffer. The size of the PCR products was determined by comparison to DNA fragments of a well-defined size; therefore, 5 μl of the DNA Ladder was carefully pipetted into the first well of the gel. Successive 10 μl of each PCR sample was then pipetted into subsequent wells on the agarose gel. The gel was connected to the Power Pack and run at 100V for 30 minutes.
# Gels were visualised on a UV Transilluminator. Photographs were stored using a Kodak Digital camera system fitted with a UV filter set connected to a PC. Images were then transferred to the Kodak ID gel imaging system. Densitometry was performed on each gene expression band using PSP™ v10 running under Windows XP®.
# Experiments were conducted using Hsp32 and Hsp 70 gene expression as the basis for study. […] (all treatments for 2 hours).
# [5] = test system: SK-HEP-1 cells; assay: Effect of high concentrations of NACCbl and GSCbl on SK-HEP-1 cells (MTS assay); assay type: cell-based, Human; parameters: cell viability (MTS), raw readings (FIG. 13): reference not given here; settings: 24 hours; for cell viability (MTS), raw readings (FIG. 13): 3 replicates
# [6] = test system: Jurkat (T-cells); assay: Survival of Jurkat cells at variable concentration of Hcy; assay type: cell-based; settings: NACCbl 30 μM, NAC 75 μM, CNCbl 15 μM, folate 30 μM; especially at higher homocysteine concentrations
# Experimental: as §1
smiles,measurement,setting,value
"CC(=O)NC(C[S-])C(=O)O.CC1=C2N=C(C=C3N=C(C(C)=C4[N-]C(C(CC(N)=O)C4(C)CCC(=O)NCC(C)OP(=O)([O-])OC4C(CO)OC(n5cnc6cc(C)c(C)cc65)C4O)C4(C)N=C1C(CCC(N)=O)C4(C)CC(N)=O)C(CCC(N)=O)C3(C)C)C(CCC(N)=O)C2(C)CC(N)=O.[Co+3] [NACCbl, N-acetyl-L-cysteinylcobalamin]","cell viability (MTS), raw readings (FIG. 11)",[1]; Hcy 1.78 (μM) two hours,2.647 and 2.551 and 2.789 and 2.89 and 2.549 and 2.611
same,"cell viability (MTS), raw readings (FIG. 11)",[1]; Hcy 3.125 (μM) two hours,2.453 and 2.338 and 2.36 and 2.317 and 2.418 and 2.535
same,"cell viability (MTS), raw readings (FIG. 11)",[1]; Hcy 6.25 (μM) two hours,2.41 and 2.4 and 2.322 and 2.201 and 2.115 and 2.187
same,"cell viability (MTS), raw readings (FIG. 11)",[1]; Hcy 12.5 (μM) two hours,2.21 and 2.11 and 2.045 and 2.065 and 2.101 and 2.324
same,"cell viability (MTS), raw readings (FIG. 11)",[1]; Hcy 25 (μM) two hours,2.1 and 2.19 and 1.879 and 1.937 and 1.779 and 1.837
same,"cell viability (MTS), raw readings (FIG. 11)",[1]; Hcy 50 (μM) two hours,1.678 and 1.832 and 1.881 and 1.73 and 1.74 and 1.855
same,"cell viability (MTS), raw readings (FIG. 11)",[1]; Hcy 100 (μM) two hours,1.678 and 1.592 and 1.694 and 1.773 and 1.732 and 1.639
same,"cell viability (MTS), raw readings (FIG. 11)",[1]; Hcy 200 (μM) two hours,1.378 and 1.167 and 1.33 and 1.456 and 1.491 and 1.537
same,effect of inhibition of both Hsp32 and Hsp70 together on protection by NACCbl,"[1]; both methods (chemically and directly), NACCbl 30 μM",totally removed protection
same,t1/2,[2],No decomposition within 20 hours
same,"protection of U937 cells from death by homocysteine, comparison",[3],"more effective at protecting these cells from death than NAC, CN Cbl or folate"
same,effect on Hsp32 gene expression,[4],induce Hsp32
same,survival,[5]; 10 mM,over 60%
same,"cell viability (MTS), raw readings (FIG. 13)",[5]; compound conc. 0.61 (μM scale),2.572 and 2.498 and 2.473
same,"cell viability (MTS), raw readings (FIG. 13)",[5]; compound conc. 1.22 (μM scale),2.546 and 2.524 and 2.538
same,"cell viability (MTS), raw readings (FIG. 13)",[5]; compound conc. 2.441 (μM scale),2.592 and 2.536 and 2.499
same,"cell viability (MTS), raw readings (FIG. 13)",[5]; compound conc. 4.882 (μM scale),2.532 and 2.463 and 2.457
same,"cell viability (MTS), raw readings (FIG. 13)",[5]; compound conc. 9.765 (μM scale),2.505 and 2.474 and 2.514
same,"cell viability (MTS), raw readings (FIG. 13)",[5]; compound conc. 19.531 (μM scale),2.485 and 2.466 and 2.502
same,"cell viability (MTS), raw readings (FIG. 13)",[5]; compound conc. 39.062 (μM scale),2.503 and 2.474 and 2.453
same,"cell viability (MTS), raw readings (FIG. 13)",[5]; compound conc. 78.125 (μM scale),2.521 and 2.488 and 2.475
same,"cell viability (MTS), raw readings (FIG. 13)",[5]; compound conc. 156.25 (μM scale),2.484 and 2.42 and 2.492
same,"cell viability (MTS), raw readings (FIG. 13)",[5]; compound conc. 312.5 (μM scale),2.409 and 2.301 and 2.437
same,"cell viability (MTS), raw readings (FIG. 13)",[5]; compound conc. 625 (μM scale),2.358 and 2.242 and 2.347
same,"cell viability (MTS), raw readings (FIG. 13)",[5]; compound conc. 1250 (μM scale),2.2 and 2.055 and 2.3
same,"cell viability (MTS), raw readings (FIG. 13)",[5]; compound conc. 2500 (μM scale),1.989 and 1.891 and 2.085
same,"cell viability (MTS), raw readings (FIG. 13)",[5]; compound conc. 5000 (μM scale),2.081 and 2.003 and 2.004
same,"cell viability (MTS), raw readings (FIG. 13)",[5]; compound conc. 10000 (= 10 mM),1.908 and 1.82 and 1.732
same,"protection of Jurkat cells from death by homocysteine, comparison",[6],"more effective at protecting these cells from death than NAC, CN Cbl or folate"

# Reference: US7812042B2, “Pharmaceutical compositions and therapeutic applications for the use of a novel vitamin B12 derivative, N-acetyl-L-cysteinylcobalamin” (priority 2006, dated 2010)
